Results taken from patent EP4818168A1, “FUSED RING COMPOUND, PHARMACEUTICAL COMPOSITION THEREOF AND USE THEREOF” (priority 2023, dated 2025).
Where two headings read alike, the source gives them in different places.

Experiments:
[1] = biological target: T1, AURKA (Homo sapiens, UniProt O14965); type: cell-based
T1 construct: endogenous in cells; host or cells: Jurkat cells
T1 sequence (O14965 1-403): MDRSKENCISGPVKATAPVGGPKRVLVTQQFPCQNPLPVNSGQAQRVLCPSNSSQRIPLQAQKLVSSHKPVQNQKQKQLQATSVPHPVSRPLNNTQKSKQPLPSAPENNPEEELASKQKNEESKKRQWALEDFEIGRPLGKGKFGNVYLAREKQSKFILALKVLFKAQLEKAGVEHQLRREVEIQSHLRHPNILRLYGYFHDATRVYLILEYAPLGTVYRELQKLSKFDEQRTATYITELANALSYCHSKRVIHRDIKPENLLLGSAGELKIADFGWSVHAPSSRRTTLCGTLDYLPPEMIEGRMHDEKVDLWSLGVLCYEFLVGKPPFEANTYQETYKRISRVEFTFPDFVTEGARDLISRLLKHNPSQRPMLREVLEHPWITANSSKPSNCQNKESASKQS
Outline: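 AURKA degradation read by western blot: band signal, fluorescent or chemiluminescent, curve-fitted to derive DC50. Cells were Jurkat, plated at 1×10^6 cells/500 µL with compound, then lysed and blotted onto nitrocellulose, primary antibody overnight at 4°C.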

[2] = system: H82 cells; assay: cells; type: cell-based; details: Homo sapiens
Outline: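 After 6 days' compound treatment at 37 °C (final DMSO 0.1%, RPMI1640/10% FBS), viable H82 cells were quantified by ATP-dependent CellTiter-Glo luminescence. Remaining activity was calculated against DMSO and medium wells, and a sigmoidal fit gave IC50.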

[3] = 100 nM compound, Jurkat cells, 24 h, Table 2
[4] = 1 µM compound, Jurkat cells, 24 h, Table 2
[5] = NCI-H82, H82 cells, 4000 cells/well, CellTiter-Glo, read-out: IC50 in H82 Cells

Structure (SMILES)	Percentage of AURKA Degradation Induced by 100 nM Compound in Jurkat Cells [1, 3]	Percentage of AURKA Degradation Induced by 1 µM Compound in Jurkat Cells [1, 4]	IC50 [2, 5]	Percentage of AURKA Degradation Induced by 100 nM Compound in Jurkat Cells [1]	Percentage of AURKA Degradation Induced by 1 µM Compound in Jurkat Cells [1]	IC50 ([2]; NCI-H82, read-out: IC50 in H82 Cells)
O=C1CCN(c2ccc(N3CCC(N4CCN(c5ccc(Nc6ncc7c(n6)-c6ccc(Cl)cc6C(c6c(F)cccc6F)=NC7)cc5)C5(CC5)C4)CC3)nc2)C(=O)N1 [Compound A217]	+ (Degradation ≤ 30%)	+ (Degradation ≤ 30%)	< 1000 nM			
O=C1CCN(c2ccc(N3CC(CN4CCN(C56CC(Nc7ncc8c(n7)-c7ccc(Cl)cc7C(c7c(F)cccc7F)=NC8)(C5)C6)CC4)C3)nc2)C(=O)N1 [Compound A219]	+++ (Degradation > 70%)	+++ (Degradation > 70%)	< 1000 nM			
O=C1CCN(c2cccc(N3CCC(N4CC5(CN(c6cccc(Nc7ncc8c(n7)-c7ccc(Cl)cc7C(c7c(F)cccc7F)=NC8)c6)C5)C4)CC3)c2)C(=O)N1 [Compound A223]				+++ (key: +: Degradation ≤ 30%; ++: 30% < Degradation ≤ 70%; +++: Degradation > 70%)	+++ (key: +: Degradation ≤ 30%; ++: 30% < Degradation ≤ 70%; +++: Degradation > 70%)	< 1000 nM
CN1CCN(CC2CN(c3cncc(N4CCC(=O)NC4=O)c3)C2)Cc2cc(Nc3ncc4c(n3)-c3ccc(Cl)cc3C(c3c(F)cccc3F)=NC4)ccc21 [Compound A225]	+++ (Degradation > 70%)	+ (Degradation ≤ 30%)	< 1000 nM			
O=C1CCN(c2ccc(N3CCC(N4CCN(C56CC(Nc7ncc8c(n7)-c7ccc(Cl)cc7C(c7c(F)cccc7F)=NC8)(C5)C6)CC4)C3)nc2)C(=O)N1 (stereo not drawn) [Compound A227]	++ (30% < Degradation ≤ 70%)	+ (Degradation ≤ 30%)	< 1000 nM			
O=C1CCN(c2ccc(N3CCC(C(=O)N4CCN(c5ccc(Nc6ncc7c(n6)-c6ccc(Cl)cc6C(c6c(F)cccc6F)=NC7)cc5)CC4)CC3)nc2)C(=O)N1 [Compound A229]	+++ (Degradation > 70%)	+++ (Degradation > 70%)	< 1000 nM			
O=C1CCN(c2ccc(N3CCC(CN4CCN(C56CC(Nc7ncc8c(n7)-c7ccc(Cl)cc7C(c7c(F)cccc7F)=NC8)(C5)C6)CC4)C3)nc2)C(=O)N1 (stereo not drawn) [Compound A231]	+++ (Degradation > 70%)	+++ (Degradation > 70%)	< 1000 nM			
O=C1CCN(c2ccc(N3CCC(N4CCN(c5ccc(Nc6ncc7c(n6)-c6ccc(Cl)cc6C(c6c(F)cccc6F)=NC7)cc5)C5(COC5)C4)CC3)nc2)C(=O)N1 [Compound A233]	++ (30% < Degradation ≤ 70%)	+++ (Degradation > 70%)	< 1000 nM			
O=C1CCN(c2cccc(N3CC(C(=O)N4CCOc5ccc(Nc6ncc7c(n6)-c6ccc(Cl)cc6C(c6c(F)cccc6F)=NC7)cc5C4)C3)c2)C(=O)N1 [Compound A235]	++ (30% < Degradation ≤ 70%)	+ (Degradation ≤ 30%)	< 1000 nM			
CN1CCN(CC2CN(c3cccc(N4CCC(=O)NC4=O)c3)C2)Cc2cc(Nc3ncc4c(n3)-c3ccc(Cl)cc3C(c3c(F)cccc3F)=NC4)ccc21 [Compound A236]	+++ (Degradation > 70%)	++ (30% < Degradation ≤ 70%)	< 1000 nM			
O=C1CCN(c2cccc(N3CC(CN4CCOc5ccc(Nc6ncc7c(n6)-c6ccc(Cl)cc6C(c6c(F)cccc6F)=NC7)cc5C4)C3)c2)C(=O)N1 [Compound A237]	+++ (Degradation > 70%)	+++ (Degradation > 70%)	< 1000 nM			
